Patent EP2380575B1, “Eslicarbazepine acetate and use” (Bial-Portela & CA, S.A., priority 2005, dated 2006)
Read-outs that look alike come from different tables or passages of the source.

Columns and labels:
[1] = Trial B: pharmacokinetics following single and repeated doses in healthy young male subjects; type: in vivo, humans; settings: for AUC(0-t) / half-life / Cmax / Tmax: male, human, oral; for AUC(0-t): read-out: Mean AUC0-24h (%CV); for half-life: read-out: Mean apparent t½ (%CV) (converted); for Cmax: read-out: Mean Cmax (%CV)
Description: The study integrated the results of three double-blind, randomized, placebo-controlled trials. To measure the pharmacokinetics of eslicarbazepine acetate following single doses, oral single doses of eslicarbazepine acetate ranging from 20 mg to 2400 mg were administered to healthy young male subjects (6 subjects per dose). The pharmacokinetics of eslicarbazepine acetate following repeated doses were measured by administering repeated oral doses ranging from 400 mg to 2400 mg of eslicarbazepine acetate to healthy young male subjects (6 subjects per dose) over a period of 8 days. Analytical test methods and experimental procedures were similar to those described for Trial A above.

[2] = clinical; settings: both, human, plasma, po, 900 mg
[3] = for share of total systemic drug exposure (as assessed by AUC0-24): 8 days multiple administration
[4] = in vivo, 50 mg, single dose 50 mg eslicarbazepine acetate, n=6
[5] = in vivo, 100 mg, single dose 100 mg eslicarbazepine acetate, n=6
[6] = in vivo, 200 mg, single dose 200 mg eslicarbazepine acetate, n=6
[7] = in vivo, 400 mg, last dose of 8-day repeated 400 mg o.d. eslicarbazepine acetate, n=6
[8] = in vivo, 400 mg, single dose 400 mg eslicarbazepine acetate, n=6
[9] = in vivo, 600 mg, single dose 600 mg eslicarbazepine acetate, n=6
[10] = in vivo, 800 mg, last dose of 8-day repeated 800 mg o.d. eslicarbazepine acetate, n=6
[11] = in vivo, 900 mg, single dose 900 mg eslicarbazepine acetate, n=6
[12] = in vivo, 1200 mg, last dose of 8-day repeated 1200 mg o.d. eslicarbazepine acetate, n=6
[13] = in vivo, 1200 mg, single dose 1200 mg eslicarbazepine acetate, n=6
[14] = in vivo, 1800 mg, last dose of 8-day repeated 1800 mg o.d. eslicarbazepine acetate, n=6
[15] = in vivo, 2400 mg, last dose of 8-day repeated 2400 mg o.d. eslicarbazepine acetate, n=6
[16] = plasma, 20 mg, single dose 20 mg eslicarbazepine acetate, n=6
[17] = plasma, 1800 mg, single dose 1800 mg eslicarbazepine acetate, n=6
[18] = plasma, 2400 mg, single dose 2400 mg eslicarbazepine acetate, n=6
[19] = multiple oral dose of 900 mg eslicarbazepine acetate once-daily, last dose, arithmetic mean
[20] = multiple oral dose of 900 mg eslicarbazepine acetate twice-daily (as titled), last dose, arithmetic mean
[21] = multiple oral dose of 900 mg eslicarbazepine acetate twice-daily (as titled), last dose, arithmetic mean, listed as Eslicarbazepine

## NC(=O)N1c2ccccc2C[C@H](O)c2ccccc21 [eslicarbazepine]
[1]; 400 mg once-daily doses of eslicarbazepine acetate
  mean AUC0-24h: 126 µg·h/mL
[1]; 2400 mg once-daily doses of eslicarbazepine acetate
  mean AUC0-24h: 906 µg·h/mL
[1]; last dose of 8-day repeated 400 mg o.d. eslicarbazepine acetate, n=6
  Median tmax (range): 3 (0.5-7) h
[1]; last dose of 8-day repeated 800 mg o.d. eslicarbazepine acetate, n=6
  Median tmax (range): 3.5 (1-7) h
[1]; last dose of 8-day repeated 1200 mg o.d. eslicarbazepine acetate, n=6
  Median tmax (range): 3 (0.5-6) h
[1]; last dose of 8-day repeated 1800 mg o.d. eslicarbazepine acetate, n=6
  Median tmax (range): 2 (0.5-4) h
[1]; last dose of 8-day repeated 2400 mg o.d. eslicarbazepine acetate, n=6
  Median tmax (range): 2 (1.5-8) h
[1]; last dose, repeated once daily 400 mg doses of eslicarbazepine acetate
  mean Cmax: 8,800 ng/ML
[1]; last dose, repeated once daily 2400 mg doses of eslicarbazepine acetate
  mean Cmax: 56,500 ng/ML
[1]; [4]
  AUC(0-t): 6.7 µg·h/mL
  half-life: 8.1 h
[1]; [5]
  AUC(0-t): 16.4 µg·h/mL
  Cmax: 1500 ng/mL
  half-life: 9.3 h
[1]; [6]
  AUC(0-t): 30.5 µg·h/mL
  Cmax: 2900 ng/mL
  half-life: 8.4 h
[1]; [7]
  AUC(0-t): 126 µg·h/mL
  Cmax: 8800 ng/mL
  half-life: 9.5 h
[1]; [8]
  AUC(0-t): 81.5 µg·h/mL
  Cmax: 5200 ng/mL
  half-life: 11.7 h
[1]; [9]
  AUC(0-t): 120 µg·h/mL
  Cmax: 8500 ng/mL
  half-life: 12.3 h
[1]; [10]
  AUC(0-t): 268 µg·h/mL
  Cmax: 18700 ng/mL
  half-life: 12.3 h
[1]; [11]
  AUC(0-t): 210 µg·h/mL
  Cmax: 15000 ng/mL
  half-life: 16.3 h
[1]; [12]
  AUC(0-t): 423 µg·h/mL
  Cmax: 25500 ng/mL
  half-life: 13.1 h
[1]; [13]
  AUC(0-t): 286 µg·h/mL
  Cmax: 18600 ng/mL
  half-life: 16.5 h
[1]; [14]
  AUC(0-t): 740 µg·h/mL
  Cmax: 47700 ng/mL
  half-life: 11.3 h
[1]; [15]
  AUC(0-t): 906 µg·h/mL
  Cmax: 56500 ng/mL
  half-life: 10.4 h
[1]; in vivo, single dose 50 mg eslicarbazepine acetate, n=6, read-out: Median tmax (range)
  Tmax: 0.8 h
[1]; in vivo, single dose 100 mg eslicarbazepine acetate, n=6, read-out: Median tmax (range)
  Tmax: 1.5 h
[1]; in vivo, single dose 200 mg eslicarbazepine acetate, n=6, read-out: Median tmax (range)
  Tmax: 1.5 h
[1]; in vivo, single dose 400 mg eslicarbazepine acetate, n=6, read-out: Median tmax (range)
  Tmax: 4 h
[1]; in vivo, single dose 600 mg eslicarbazepine acetate, n=6, read-out: Median tmax (range)
  Tmax: 4 h
[1]; in vivo, single dose 900 mg eslicarbazepine acetate, n=6, read-out: Median tmax (range)
  Tmax: 2.3 h
[1]; in vivo, single dose 1200 mg eslicarbazepine acetate, n=6, read-out: Median tmax (range)
  Tmax: 4 h
[1]; [16]
  AUC(0-t): 2.4 µg·h/mL
  Cmax: 300 ng/mL
  half-life: 9.1 h
[1]; plasma, 50 mg, single dose 50 mg eslicarbazepine acetate, n=6
  Cmax: 900 ng/mL
[1]; [17]
  AUC(0-t): 508 µg·h/mL
  Cmax: 34600 ng/mL
  half-life: 11.8 h
[1]; [18]
  AUC(0-t): 0.446 µg·h/mL
  Cmax: 35900 ng/mL
  half-life: 11.1 h
[1]; plasma, last dose, repeated once daily, all dosages, read-out: median tmax
  Tmax: 2 to 3.5 h
[1]; plasma, single dose 20 mg eslicarbazepine acetate, n=6, read-out: Median tmax (range)
  Tmax: 0.8 h
[1]; plasma, single dose 1800 mg eslicarbazepine acetate, n=6, read-out: Median tmax (range)
  Tmax: 3.5 h
[1]; plasma, single dose 2400 mg eslicarbazepine acetate, n=6, read-out: Median tmax (range)
  Tmax: 3 h
[2]
  AUC(0-inf): 389 µg·h/mL
  AUC(0-t): 382 µg·h/mL
  Cmax: 22200 ng/mL
  Tmax: 2.45 h
  half-life: 9.12 h
[3]; healthy volunteers, 900 mg daily
  total exposure in the once-daily group higher than in the twice-daily group: at least 26%
[3]; multiple oral dose of 900 mg eslicarbazepine acetate once-daily, last dose
  Tmax: 2.45 h
[3]; [19]
  AUC(0-t): 381601 ng·h/mL
  Cmax: 22210 ng/mL
[3]; multiple oral dose of 900 mg eslicarbazepine acetate once-daily, last dose, dosing interval 24 hours
  AUC0-τ: 294.019 µg·h/mL
[3]; multiple oral dose of 900 mg eslicarbazepine acetate twice-daily (as titled), last dose
  Tmax: 2.09 h
[3]; [20]
  AUC0-∞: 289.792 µg·h/mL
  AUC(0-t): 283,014 ng·h/mL
  Cmax: 16,667 ng/mL
  t1/2: 9.17 h
[3]; [21]
  AUC(0-t): 283014 ng·h/mL
  Cmax: 16667 ng/mL
[3]; multiple oral dose of 900 mg eslicarbazepine acetate twice-daily (as titled), last dose, dosing interval 12 hours
  AUC0-τ: 142.08 µg·h/mL
[3]; once-daily subjects
  share of total systemic drug exposure (as assessed by AUC0-24): approximately 95%
[3]; twice-daily subjects
  share of total systemic drug exposure (as assessed by AUC0-24): ~96%
